Experimental data: patent US6911469B2, “Sulfonamide compounds and pharmaceutical use thereof” (Fujisawa Pharmaceutical Co., Ltd., priority 1997, dated 2005)

Structure (SMILES)	melting point [°C]
Cc1cc(C(=O)NS(=O)(=O)/C=C/c2ccccc2)nc2c1nc(C)n2Cc1ccc(Br)cc1Cl [Example 106-2, (E)-3-(4-bromo-2-chlorobenzyl)-2,7-dimethyl-5-[(2-phenylethenyl)sulfonylcarbamoyl]-3H-imidazo[4,5-b]pyridine]	225 to 227
Cc1nc2ccc(C(=O)NS(=O)(=O)c3ccccc3)nc2n1Cc1ccc(-c2ccccc2)cc1Cl [Example 29-1, 5-benzenesulfonylcarbamoyl-3-(2-chloro-4-phenylbenzyl)-2-methyl-3H-imidazo[4,5-b]pyridine]	204 to 214
Cc1cc(Cl)ccc1Cn1c(C)nc2ccc(C(=O)NS(=O)(=O)c3ccccc3)nc21 [Example 28-2, 5-benzenesulfonylcarbamoyl-3-(4-chloro-2-methylbenzyl)-2-methyl-3H-imidazo[4,5-b]pyridine]	235 to 237
Cc1cc(C(=O)NS(=O)(=O)/C=C/c2ccccc2)nc2c1nc(C)n2Cc1ccc(-c2ccc(Cl)s2)cc1Cl [Example 196, 3-[2-chloro-4-(5-chlorothiophen-2-yl)benzyl]-2,7-dimethyl-5-[(E)-(2-phenylethenyl)sulfonylcarbamoyl]-3H-imidazo[4,5-b]pyridine]	224 to 225
CCCCCS(=O)(=O)NC(=O)c1cc(C)c2nc(C)n(Cc3ccc(Br)cc3Cl)c2n1 [Example 105, 3-(4-bromo-2-chlorobenzyl)-2,7-dimethyl-5-(pentanesulfonylcarbamoyl)-3H-imidazo[4,5-b]pyridine]	148 to 149
CCCCS(=O)(=O)NC(=O)c1ccc2c(c1)n(Cc1ccc(Cl)cc1Cl)c(=O)n2C [Example 39, 6-(1-n-butanesulfonylcarbamoyl)-1-(2,4-dichlorobenzyl)-3-methyl-2-benzimidazolone]	358 to 360
CCCCS(=O)(=O)NC(=O)c1ccc2c(=O)n(CC)c(=O)n(Cc3ccc(Cl)cc3Cl)c2c1 [Example 42, 7-(1-n-butanesulfonyl-carbamoyl)-1-(2,4-dichlorobenzyl)-3-ethyl-2,4(1H,3H)-quinazolinedione]	212 to 214
CCCCOc1ccc(Cn2c(C)nc3ccc(C(=O)NS(=O)(=O)c4ccccc4)nc32)c(Cl)c1 [Example 80, 5-(benzenesulfonylcarbamoyl)-3-(4-(n-butoxy)-2-chlorobenzyl)-2-methyl-3H-imidazo[4,5-b]pyridine]	181 to 182
CCCCS(=O)(=O)NC(=O)c1ccc2c(=O)n(Cc3ccc(Cl)cc3Cl)c(=O)n(C)c2c1 [Example 43, 7-(1-n-butanesulfonyl-carbamoyl)-3-(2,4-dichlorobenzyl)-1-methyl-2,4(1H,3H)-quinazolinedione]	212 to 214
CCCCCS(=O)(=O)NC(=O)c1cc(C)c2nc(C)n(Cc3ccc4ccccc4c3Br)c2n1 [Example 104-1, 3-(1-bromonaphthalen-2-ylmethyl)-2,7-dimethyl-5-(pentanesulfonylcarbamoyl)-3H-imidazo[4,5-b]pyridine]	210 to 211
Cc1nc2ccc(C(=O)NS(=O)(=O)c3ccccc3)nc2n1Cc1ccc(Br)cc1Cl [Example 12-3, 5-(benzenesulfonylcarbamoyl)-3-(4-bromo-2-chlorobenzyl)-2-methyl-3H-imidazo[4,5-b]pyridine]	193 to 194
CCCCS(=O)(=O)NC(=O)c1ccc2c(=O)n(C)c(Cc3ccc(Cl)cc3Cl)nc2c1 [Example 45, 7-(1-n-butanesulfonyl-carbamoyl)-2-(2,4-dichlorobenzyl)-3-methyl-4(3H)-quinazolinone]	244 to 246
Cc1nc2ccc(C(=O)NS(=O)(=O)c3ccc(Cl)s3)nc2n1Cc1ccc(-c2ccccc2)cc1Cl [Example 67-3, 3-(2-chloro-4-phenylbenzyl)-5-[(5-chlorothiophene-2-yl)sulfonylcarbamoyl]-2-methyl-3H-imidazo[4,5-b]pyridine]	210 to 212
Cc1cc(C(=O)NS(=O)(=O)c2ccccc2)nc2c1nc(C)n2Cc1ccc(Br)cc1Cl [Example 121, 5-(Benzenesulfonylcarbamoyl)-3-(4-bromo-2-chlorobenzyl)-2,7-dimethyl-3H-imidazo[4,5-b]pyridine]	231 to 232
CCCCCS(=O)(=O)NC(=O)c1ccc2nc(C)n(Cc3ccc(Cl)cc3OC)c2n1 [Example 27, 3-(4-chloro-2-methoxybenzyl)-2-methyl-5-(n-pentanesulfonylcarbamoyl)-3H-imidazo[4,5-b]pyridine]	168 to 170
CCCCCS(=O)(=O)NC(=O)c1cc(C)c2nc(C)n(Cc3ccc(-c4cccs4)cc3Cl)c2n1 [Example 188, 3-[2-chloro-4-(thiophen-2-yl)benzyl]-2,7-dimethyl-5-(1-pentanesulfonylcarbamoyl)-3H-imidazo[4,5-b]pyridine]	220 to 224
CCCCS(=O)(=O)NC(=O)c1ccc2nc(C)c(=O)n(Cc3ccc(Cl)cc3Cl)c2c1 [Example 49, 7-(1-n-butanesulfonyl-carbamoyl)-1-(2,4-dichlorobenzyl)-3-methyl-2(1H)-quinoxalinone]	223 to 225
CCCCS(=O)(=O)NC(=O)c1ccc2nc(C)n(Cc3ccc(-c4ccccc4)cc3Cl)c2n1 [Example 29-2, 5-(n-butanesulfonylcarbamoyl)-3-(2-chloro-4-phenylbenzyl)-2-methyl-3H-imidazo[4,5-b]pyridine]	199 to 200
Cc1nc2ccc(C(=O)NS(=O)(=O)c3ccccc3)nc2n1Cc1ccc(C#N)cc1Cl [Example 108, 5-(benzenesulfonylcarbamoyl)-3-(2-chloro-4-cyanobenzyl)-2-methyl-3H-imidazo[4,5-b]pyridine]	242 to 243
CCCCS(=O)(=O)NC(=O)c1ccc2nnn(Cc3ccc(Cl)cc3Cl)c2c1 [Example 40, 6-(1-n-butanesulfonyl-carbamoyl)-1-(2,4-dichlorobenzyl)benzotriazole]	158 to 160
CCCCCS(=O)(=O)NC(=O)c1cccc2c(CC)c(Cc3ccc(Cl)cc3Cl)sc12 [Example 38-1, 2-(2,4-dichlorobenzyl)-3-ethyl-7-(1-n-pentanesulfonylcarbamoyl)benzo[b]thiophene]	176 to 178
Cc1nc2ccc(C(=O)NS(=O)(=O)/C=C/c3ccccc3)nc2n1Cc1ccc(-c2ccccc2)cc1Cl [Example 67-2, (E)-3-(2-chloro-4-phenylbenzyl)-2-methyl-5-[(2-phenylethenyl)sulfonylcarbamoyl]-3H-imidazo[4,5-b]pyridine]	216 to 218
Cc1cc(C(=O)NS(=O)(=O)c2ccc(Cl)s2)nc2c1nc(C)n2Cc1ccc(-c2ccccc2)cc1Cl [Example 185, 3-(2-chloro-4-phenylbenzyl)-5-[(5-chlorothiophen-2-yl)sulfonylcarbamoyl]-2,7-dimethyl-3H-imidazo[4,5-b]pyridine]	241 to 242
Cc1nc2ccc(C(=O)NS(=O)(=O)/C=C/c3ccccc3)nc2n1Cc1ccc(C(F)(F)F)cc1Cl [Example 109-1, (E)-3-(2-chloro-4-(trifluoromethyl)benzyl)-2-methyl-5-((2-phenylethenyl)sulfonylcarbamoyl)-3H-imidazo[4,5-b]pyridine]	140 to 142
CCCCCS(=O)(=O)NC(=O)c1cc(C)c2nc(C)n(Cc3ccc(-c4ccc(Cl)s4)cc3Cl)c2n1 [Example 193, 3-[2-chloro-4-(5-chlorothiophen-2-yl)benzyl]-2,7-dimethyl-5-(1-pentanesulfonylcarbamoyl)-3H-imidazo[4,5-b]pyridine]	215 to 217
